Marks after values point to notes of the source that are not given here.
Key:
[1] = system: rat caudal artery; experiment: Rat caudal artery ring contractile force (vasoconstrictory activity); parameters: species or system rat (male Wistar)
Method in brief: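 Endothelium-denuded caudal artery rings from male Wistar rats were held at 2 g resting tension in Tyrode solution (37° C, pH 7.35, 95% O2/CO2) and isometric force was recorded. Compounds were tested at 50 μM, with contraction expressed as percent of the 90 mM KCl response.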

[2] = system: Sprague Dawley rats; experiment: In vivo lethality, oral gavage; parameters: species or system rat (Sprague Dawley); details: rat; for Time to Death (min) / Onset of Symptoms: mean time; for Onset of Symptoms: visual signs of distress consistent with NRB-like symptoms; for In vivo lethality (oral): n = 2
Method in brief: (§1)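 Sprague Dawley rats (150-200 g) received compound dissolved in 0.2 M HCl (5% DMSO overall) at the desired dose, by oral gavage or tail-vein i.v. injection. Animals were watched for early toxicity signs every minute (i.v.) or every 15 min (oral).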

[3] = system: Sprague Dawley rats; experiment: Palatability (no-choice) trial, peanut butter bait; type: in vivo, rat (Sprague Dawley); details: 2% w/w toxicant in peanut butter bait, n = 6, Table 12
[4] = system: Sprague Dawley rats; experiment: Palatability (choice) trial, peanut butter bait; type: in vivo, rat (Sprague Dawley); details: choice of EPA diet (20 g) and bait with 1% w/w toxicant (20 g), 2 days, n = 2; Table 15
[5] = system: Sprague Dawley rats; experiment: Palatability (no-choice) trial, peanut butter bait; type: in vivo, rat (Sprague Dawley); details: 1% w/w toxicant in peanut butter bait, n = 6, 3 male and 3 female rats
Description: In the palatability trials, Sprague Dawley rats (ca. 250 g) were presented with 1% w/w compound (n=6) or 0.5% w/w compound (n=5) in a peanut butter bait, following 3 days ‘pre-baiting’ with a peanut butter formulation free of toxicant.

[6] = Rat serum assay (release of NRB or NRB analogue); type: in vitro ADME; details: 80% rat serum, 37° C., 3 h, n = 3
Method in brief: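 Compound (200 μM final) incubated in 80% rat serum diluted with 0.1 M phosphate pH 7.4, 2.5% DMSO, 37 °C for 3 h, n=3, then quenched in ice-cold acetonitrile. NRB or analogue release was quantified by RP-LCMS against external calibration curves, expressed as percent released.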

[7] = Rat liver S9 fraction assay (release of NRB or NRB analogue); type: in vitro ADME, rat (male Sprague-Dawley); details: 1 mg/mL rat liver S9 fraction, 37° C., 6 h, n = 3
Protocol: The hydrolytic stability of compounds of the invention was also evaluated in vitro using rat liver S9 fraction (20 mg/mL), pooled from male rat (Sprague-Dawley), obtained from Sigma-Aldrich, diluted to 1 mg/mL with phosphate buffer (0.1 M, pH 7.4) and stored at −78° C. Similar assay conditions to those reported by Li Di and co-workers (Int. J. Pharm. 2005, 297, 110-119) were followed [200 μL total volume, 1 mg/mL rat liver S9 fraction (diluting with phosphate buffer (0.1 M, pH 7.4)), at a final compound concentration of 200 μM, 2.5% DMSO overall, 37° C., 6 h, n=3]. The assay protocol followed is as that described above for the rat serum assay, with an adjusted end-point of 6 h.

[8] = Simulated gastric fluid (SGF) hydrolytic stability assay; type: physicochemical; details: footnote c: compounds not exhibiting vasoconstriction; simulated gastric fluid without pepsin, pH 1.2, 37° C., 1 h, n = 3
Method in brief: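 Compounds at 200 μM final (2.5% DMSO) were held 1 h at 37 °C in pepsin-free USP simulated gastric fluid (0.03 M NaCl, pH 1.2 with HCl), n=3. […] was quantified by RP-LCMS.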

[9] = system: Sprague Dawley rats; experiment: In vivo lethality, intravenous injection via the tail; parameters: species or system rat (Sprague Dawley); details: 20 mg/Kg, rat, n = 2
Method in brief: as §1

Compound | Vasoconstriction: maximum contractile effect as a % of 90 mM KCl contraction ([1]; Table 2, compound at 50 μM) [%] | Vasoconstriction: maximum contractile effect as a % of 90 mM KCl contraction ([1]; Table 4, pre-cleavage, n = 3) [%] | Time to Death (min) ([2]; 20 mg/Kg) | Onset of Symptoms ([2]; 20 mg/Kg) [min] | In vivo lethality (oral) ([2]; 40 mg/Kg) | No of deaths [3] | No of deaths [4] | No of deaths ([5]; Table 12) | % NRB released, Rat Serum [6] [%] | Vasoconstriction: maximum contractile effect as a % of 90 mM KCl contraction ([1]; Table 1, compound at 50 μM) [%] | In vivo lethality (oral) ([2]; 20 mg/Kg) | % NRB released, Rat Liver S9 [7] [%] | % NRB released, Hydrolytic Stability (simulated gastric fluid) [8] | In vivo lethality (i.v.) [9] | No of deaths ([5]; Table 11)
CCCCCCCCCCCC(=O)NCCN1C(=O)C2C3C=C(C(O)(c4ccccc4)c4ccccn4)C(C3=C(c3ccccc3)c3ccccn3)C2C1=O (stereo not drawn) [Compound 339, N-2′-Dodecanamidoethyl-5-(α-hydroxy-α-2-pyridylbenzyl)-7-(α-2-pyridylbenzylidene)-5-norbornene-2,3-dicarboximide] | 0 | 0 | 300^e min | 200 | yes^h | 5/6 | 3/12 | 3/6 | – | – | – | – | – | – | –
5-(α-Hydroxy-α-2-pyridylbenzyl)-N-2′-phenylpropioyloxyethyl-7-(α-2-pyridylbenzylidene)-5-norbornene-2,3-dicarboximide [Compound 123] | – | 0 | 35^d min | 15 | yes^h,i | – | – | – | 84.5 ± 2.0 | 0 | yes^h,i | 55.6 ± 4.1 | 0^c % | yes^f | –
O=C(C=Cc1ccccc1)OCCCN1C(=O)C2C3C=C(C(O)(c4ccccc4)c4ccccn4)C(C3=C(c3ccccc3)c3ccccn3)C2C1=O (stereo not drawn) [Compound 136, N-3′-Cinnamoyloxypropyl-5-(α-hydroxy-α-2-pyridylbenzyl)-7-(α-2-pyridylbenzylidene)-5-norbornene-2,3-dicarboximide] | – | 0 | not lethal | 20 | yes^h | – | – | – | 76.5 ± 5.7 | 0 | – | 18.2 ± 2.7 | 0^c % | yes^f | –
CCCCCCCC(=O)OCCN1C(=O)C2C3C=C(C(O)(c4ccccc4)c4ccccn4)C(C3=C(c3ccccc3)c3ccccn3)C2C1=O (stereo not drawn) [Compound 111, 5-(α-Hydroxy-α-2-pyridylbenzyl)-N-2′-octanoyloxyethyl-7-(α-2-pyridylbenzylidene)-5-norbornene-2,3-dicarboximide] | – | 0 | >120^e min | 15 | – | – | – | – | 87.9 ± 0.7 | 0 | – | 48.5 ± 8.5 | 20^c % | – | 6/6

— patent US9198420B2, “Rodenticidal norbormide analogues” (priority 2012, dated 2015)
